The kinase profiling compilation of Christmann-Franck et al. (2016)
Several values for one entry are separate records, joined by “and”; a condition that tells them apart may be missing. Identical values can stand only once.

Columns and labels:
PDPK1 (human) = PDPK1 (human) (UniProt O15530); assay: radiometric filter-binding kinase assay; conditions: compound 1.0 µM
MAPK14 (human) = MAPK14 (human) (UniProt Q16539); assay: radiometric filter-binding kinase assay
[1] = tested on: AKT1 (human), P31749 [S473D]; assay: radiometric filter-binding kinase assay
Sequence of AKT1 (human), P31749 [S473D] (P31749 whole entry S473D, looked up): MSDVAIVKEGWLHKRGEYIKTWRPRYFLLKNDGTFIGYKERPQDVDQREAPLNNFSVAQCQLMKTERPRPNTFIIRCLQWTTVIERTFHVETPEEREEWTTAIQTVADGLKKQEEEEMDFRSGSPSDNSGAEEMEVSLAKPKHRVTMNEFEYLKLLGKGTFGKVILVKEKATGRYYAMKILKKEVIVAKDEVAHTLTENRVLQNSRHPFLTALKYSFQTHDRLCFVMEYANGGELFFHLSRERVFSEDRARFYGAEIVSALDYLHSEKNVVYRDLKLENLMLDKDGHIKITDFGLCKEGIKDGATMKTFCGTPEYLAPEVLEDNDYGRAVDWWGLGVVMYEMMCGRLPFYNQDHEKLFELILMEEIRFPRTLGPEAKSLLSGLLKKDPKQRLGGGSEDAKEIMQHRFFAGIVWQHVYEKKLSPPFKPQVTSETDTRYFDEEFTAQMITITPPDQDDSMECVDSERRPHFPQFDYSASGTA

HIPK2 (human) = HIPK2 (human) (UniProt Q9H2X6); assay: radiometric filter-binding kinase assay
Sequence of HIPK2 (human) (Q9H2X6 whole entry, looked up): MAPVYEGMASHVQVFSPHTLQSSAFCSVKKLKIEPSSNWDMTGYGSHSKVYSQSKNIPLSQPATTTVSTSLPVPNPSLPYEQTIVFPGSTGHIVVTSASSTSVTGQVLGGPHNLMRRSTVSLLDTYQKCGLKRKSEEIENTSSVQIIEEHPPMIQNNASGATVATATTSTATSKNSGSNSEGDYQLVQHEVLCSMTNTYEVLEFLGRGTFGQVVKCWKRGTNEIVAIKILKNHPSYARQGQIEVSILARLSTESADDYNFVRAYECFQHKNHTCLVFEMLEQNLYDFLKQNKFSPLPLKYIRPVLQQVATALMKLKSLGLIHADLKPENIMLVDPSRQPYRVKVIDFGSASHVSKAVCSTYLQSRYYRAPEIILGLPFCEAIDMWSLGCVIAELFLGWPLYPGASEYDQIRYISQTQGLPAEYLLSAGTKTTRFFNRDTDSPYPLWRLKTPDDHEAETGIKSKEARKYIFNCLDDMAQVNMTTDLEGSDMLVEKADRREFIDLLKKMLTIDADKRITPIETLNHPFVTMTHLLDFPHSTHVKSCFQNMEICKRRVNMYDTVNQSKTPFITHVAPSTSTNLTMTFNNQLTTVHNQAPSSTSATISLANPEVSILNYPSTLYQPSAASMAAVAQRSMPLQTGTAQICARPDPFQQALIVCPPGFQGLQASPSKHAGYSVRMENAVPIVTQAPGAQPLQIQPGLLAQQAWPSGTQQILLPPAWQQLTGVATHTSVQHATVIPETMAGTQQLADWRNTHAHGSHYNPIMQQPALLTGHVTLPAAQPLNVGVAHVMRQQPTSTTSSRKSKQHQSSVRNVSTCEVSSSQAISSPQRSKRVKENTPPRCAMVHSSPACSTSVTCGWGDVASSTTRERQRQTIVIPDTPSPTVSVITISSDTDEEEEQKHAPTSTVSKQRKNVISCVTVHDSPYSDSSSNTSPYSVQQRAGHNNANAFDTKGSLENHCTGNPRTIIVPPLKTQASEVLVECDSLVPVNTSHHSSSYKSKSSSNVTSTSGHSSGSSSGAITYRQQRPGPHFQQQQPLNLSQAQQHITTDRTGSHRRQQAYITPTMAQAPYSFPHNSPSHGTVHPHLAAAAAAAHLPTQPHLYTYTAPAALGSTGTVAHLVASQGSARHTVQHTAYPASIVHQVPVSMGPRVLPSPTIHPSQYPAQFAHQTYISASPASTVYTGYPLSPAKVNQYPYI

CAMKK2 (human) = CAMKK2 (human) (UniProt Q96RR4); assay: radiometric filter-binding kinase assay
Sequence of CAMKK2 (human) (Q96RR4 whole entry, looked up): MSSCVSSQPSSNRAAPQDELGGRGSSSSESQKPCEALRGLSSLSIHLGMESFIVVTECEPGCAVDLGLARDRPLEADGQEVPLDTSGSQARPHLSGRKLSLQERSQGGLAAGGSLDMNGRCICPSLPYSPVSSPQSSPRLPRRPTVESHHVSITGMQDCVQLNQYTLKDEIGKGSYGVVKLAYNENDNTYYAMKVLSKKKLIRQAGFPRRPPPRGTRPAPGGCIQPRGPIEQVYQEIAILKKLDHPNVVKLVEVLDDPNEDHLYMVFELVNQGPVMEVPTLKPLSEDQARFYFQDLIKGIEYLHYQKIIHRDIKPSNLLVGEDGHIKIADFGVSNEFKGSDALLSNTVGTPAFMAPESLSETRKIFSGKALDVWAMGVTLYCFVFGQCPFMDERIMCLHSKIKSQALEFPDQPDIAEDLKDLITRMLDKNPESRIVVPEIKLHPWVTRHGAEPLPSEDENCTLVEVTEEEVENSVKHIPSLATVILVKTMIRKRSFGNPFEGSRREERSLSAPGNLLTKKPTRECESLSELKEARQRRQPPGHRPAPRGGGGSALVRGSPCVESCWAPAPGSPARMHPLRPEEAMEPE

MELK (human) = MELK (human) (UniProt Q14680); assay: radiometric filter-binding kinase assay
Sequence of MELK (human) (Q14680 whole entry, looked up): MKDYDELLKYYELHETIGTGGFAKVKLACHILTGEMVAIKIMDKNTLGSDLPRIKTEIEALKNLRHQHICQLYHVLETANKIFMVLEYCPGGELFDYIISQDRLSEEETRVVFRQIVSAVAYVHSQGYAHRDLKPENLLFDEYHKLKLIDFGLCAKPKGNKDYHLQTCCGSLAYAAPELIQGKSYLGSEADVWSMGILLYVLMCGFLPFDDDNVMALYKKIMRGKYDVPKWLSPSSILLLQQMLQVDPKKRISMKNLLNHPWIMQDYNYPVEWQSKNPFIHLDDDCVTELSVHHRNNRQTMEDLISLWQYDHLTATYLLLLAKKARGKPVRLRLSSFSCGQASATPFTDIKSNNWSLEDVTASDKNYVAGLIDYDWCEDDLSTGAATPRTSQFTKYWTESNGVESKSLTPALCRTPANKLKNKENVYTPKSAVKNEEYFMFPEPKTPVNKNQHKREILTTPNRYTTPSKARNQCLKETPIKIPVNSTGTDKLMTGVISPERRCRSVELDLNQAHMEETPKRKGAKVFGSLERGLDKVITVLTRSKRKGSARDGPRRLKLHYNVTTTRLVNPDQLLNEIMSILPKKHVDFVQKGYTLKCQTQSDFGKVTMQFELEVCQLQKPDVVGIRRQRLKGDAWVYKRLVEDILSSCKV

FLT1 (human) = FLT1 (human) (UniProt P17948); assay: radiometric filter-binding kinase assay
[2] = tested on: SGK1 (human), O00141 [S422D]; assay: radiometric filter-binding kinase assay
Sequence of SGK1 (human), O00141 [S422D] (O00141 whole entry S422D, looked up): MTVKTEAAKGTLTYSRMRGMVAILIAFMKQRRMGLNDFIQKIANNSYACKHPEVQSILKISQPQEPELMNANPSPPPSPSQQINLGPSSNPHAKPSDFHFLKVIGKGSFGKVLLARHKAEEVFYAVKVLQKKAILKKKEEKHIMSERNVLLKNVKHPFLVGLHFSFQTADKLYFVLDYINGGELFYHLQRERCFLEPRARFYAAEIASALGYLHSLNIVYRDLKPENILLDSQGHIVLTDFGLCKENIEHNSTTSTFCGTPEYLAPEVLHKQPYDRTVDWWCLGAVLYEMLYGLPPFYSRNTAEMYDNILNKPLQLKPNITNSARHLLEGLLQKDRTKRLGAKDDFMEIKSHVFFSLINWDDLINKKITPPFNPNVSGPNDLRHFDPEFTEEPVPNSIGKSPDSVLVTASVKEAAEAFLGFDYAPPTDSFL

NTRK1 (human) = NTRK1 (human) (UniProt P04629); assay: radiometric filter-binding kinase assay
Sequence of NTRK1 (human) (P04629 whole entry, looked up): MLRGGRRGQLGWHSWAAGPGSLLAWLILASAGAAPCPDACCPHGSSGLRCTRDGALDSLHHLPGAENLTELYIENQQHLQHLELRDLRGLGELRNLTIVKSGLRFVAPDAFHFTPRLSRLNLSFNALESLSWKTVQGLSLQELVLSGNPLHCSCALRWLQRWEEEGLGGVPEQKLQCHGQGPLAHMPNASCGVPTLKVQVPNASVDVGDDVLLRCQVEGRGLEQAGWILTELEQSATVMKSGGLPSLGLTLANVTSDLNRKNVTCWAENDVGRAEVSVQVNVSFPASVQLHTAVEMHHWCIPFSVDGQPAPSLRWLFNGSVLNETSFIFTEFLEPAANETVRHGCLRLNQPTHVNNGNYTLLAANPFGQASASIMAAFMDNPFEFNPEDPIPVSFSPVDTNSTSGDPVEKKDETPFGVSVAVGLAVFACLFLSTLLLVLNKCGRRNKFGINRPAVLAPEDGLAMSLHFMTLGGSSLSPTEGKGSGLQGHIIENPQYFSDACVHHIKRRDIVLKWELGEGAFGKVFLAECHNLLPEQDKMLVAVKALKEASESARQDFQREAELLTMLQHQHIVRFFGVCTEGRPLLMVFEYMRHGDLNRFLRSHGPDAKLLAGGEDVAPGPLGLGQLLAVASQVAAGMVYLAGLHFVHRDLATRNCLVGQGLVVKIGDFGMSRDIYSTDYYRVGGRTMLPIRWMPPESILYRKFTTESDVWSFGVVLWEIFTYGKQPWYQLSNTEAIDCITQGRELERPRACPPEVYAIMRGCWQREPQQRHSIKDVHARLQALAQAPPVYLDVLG

PRKAA1 or PRKAA2 (rat) = assay: radiometric filter-binding kinase assay; conditions: accession and sequence are those of the human protein
MAPK3 (human) = MAPK3 (human) (UniProt P27361); assay: radiometric filter-binding kinase assay
Sequence of MAPK3 (human) (P27361 whole entry, looked up): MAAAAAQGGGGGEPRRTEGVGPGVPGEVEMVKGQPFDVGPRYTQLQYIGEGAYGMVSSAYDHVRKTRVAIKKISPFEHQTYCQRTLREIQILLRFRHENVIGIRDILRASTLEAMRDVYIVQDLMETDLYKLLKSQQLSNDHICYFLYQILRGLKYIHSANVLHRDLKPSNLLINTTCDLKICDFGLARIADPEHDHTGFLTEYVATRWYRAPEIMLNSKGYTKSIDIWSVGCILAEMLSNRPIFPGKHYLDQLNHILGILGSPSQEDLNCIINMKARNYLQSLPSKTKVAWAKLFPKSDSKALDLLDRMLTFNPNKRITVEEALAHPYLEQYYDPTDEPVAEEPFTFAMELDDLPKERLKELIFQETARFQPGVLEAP

PRKACA (human) = PRKACA (human) (UniProt P17612); assay: radiometric filter-binding kinase assay
DYRK1A (human) = DYRK1A (human) (UniProt Q13627); assay: radiometric filter-binding kinase assay
ULK3 (human) = ULK3 (human) (UniProt Q6PHR2); assay: KINOMEscan competition binding; conditions: compound 10.0 µM
PRKCH (human) = PRKCH (human) (UniProt P24723); assay: KINOMEscan competition binding; conditions: compound 10.0 µM
PAK3 (human) = PAK3 (human) (UniProt O75914); assay: KINOMEscan competition binding; conditions: compound 10.0 µM
MAP4K4 (human) = MAP4K4 (human) (UniProt O95819); assay: KINOMEscan competition binding; conditions: compound 10.0 µM
NUAK1 (human) = NUAK1 (human) (UniProt O60285); assay: KINOMEscan competition binding; conditions: compound 10.0 µM
PRPF4B (human) = PRPF4B (human) (UniProt Q13523); assay: KINOMEscan competition binding; conditions: compound 10.0 µM
OXSR1 (human) = OXSR1 (human) (UniProt O95747); assay: KINOMEscan competition binding; conditions: compound 10.0 µM
HIPK3 (human) = HIPK3 (human) (UniProt Q9H422); assay: KINOMEscan competition binding; conditions: compound 10.0 µM
STK32A (human) = STK32A (human) (UniProt Q8WU08); assay: KINOMEscan competition binding; conditions: compound 10.0 µM
PIM3 (human) = PIM3 (human) (UniProt Q86V86); assay: KINOMEscan competition binding; conditions: compound 10.0 µM
MAP3K3 (human) = MAP3K3 (human) (UniProt Q99759); assay: KINOMEscan competition binding; conditions: compound 10.0 µM
CHUK (human) = CHUK (human) (UniProt O15111); assay: KINOMEscan competition binding; conditions: compound 10.0 µM
CDC2L2 (human) = CDC2L2 (human) (UniProt Q9UQ88); assay: KINOMEscan competition binding; conditions: compound 10.0 µM
CDKL5 (human) = CDKL5 (human) (UniProt O76039); assay: KINOMEscan competition binding; conditions: compound 10.0 µM
[3] = tested on: FLT3 (human), P36888 [D835H]; assay: KINOMEscan competition binding; conditions: compound 10.0 µM
CDKL1 (human) = CDKL1 (human) (UniProt Q00532); assay: KINOMEscan competition binding; conditions: compound 10.0 µM
PRKD3 (human) = PRKD3 (human) (UniProt O94806); assay: KINOMEscan competition binding; conditions: compound 10.0 µM
MAPK4 (human) = MAPK4 (human) (UniProt P31152); assay: KINOMEscan competition binding; conditions: compound 10.0 µM
PRKAA2 (human) = PRKAA2 (human) (UniProt P54646); assay: KINOMEscan competition binding; conditions: compound 10.0 µM
GAK (human) = GAK (human) (UniProt O14976); assay: KINOMEscan competition binding; conditions: compound 10.0 µM
[4] = tested on: KIT (human), P10721 [D816V]; assay: KINOMEscan competition binding; conditions: compound 10.0 µM
CDK18 (human) = CDK18 (human) (UniProt Q07002); assay: KINOMEscan competition binding; conditions: compound 10.0 µM
[5] = tested on: EGFR (human), P00533 [746-750 del]; assay: KINOMEscan competition binding; conditions: compound 10.0 µM
IRAK3 (human) = IRAK3 (human) (UniProt Q9Y616); assay: KINOMEscan competition binding; conditions: compound 10.0 µM
ABL2 (human) = ABL2 (human) (UniProt P42684); assay: KINOMEscan competition binding; conditions: compound 10.0 µM

Sequence of MAPK14 (human) (Q16539 whole entry, looked up): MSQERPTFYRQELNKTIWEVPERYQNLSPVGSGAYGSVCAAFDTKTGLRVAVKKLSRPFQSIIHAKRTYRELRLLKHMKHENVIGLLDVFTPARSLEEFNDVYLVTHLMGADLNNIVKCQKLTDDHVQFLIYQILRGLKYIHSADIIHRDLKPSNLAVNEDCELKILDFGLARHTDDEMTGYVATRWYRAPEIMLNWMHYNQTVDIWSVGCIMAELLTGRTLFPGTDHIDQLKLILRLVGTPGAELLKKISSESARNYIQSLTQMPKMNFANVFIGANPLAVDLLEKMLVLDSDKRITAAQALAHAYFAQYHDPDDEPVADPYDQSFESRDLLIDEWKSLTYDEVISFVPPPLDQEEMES

SMILES: COc1cc(C(=O)N2CCC(N3CCN(C)CC3)CC2)ccc1Nc1ncc2c(n1)N(C)c1ccccc1C(=O)N2C
- residual activity (PDPK1 (human)): 68% and 74%
- residual activity (MAPK14 (human); compound 1.0 µM): 95%
- residual activity (MAPK14 (human); compound 10.0 µM): 96%
- residual activity ([1]; compound 1.0 µM): 71%
- residual activity ([1]; compound 10.0 µM): 81%
- residual activity (HIPK2 (human); compound 1.0 µM): 76%
- residual activity (HIPK2 (human); compound 10.0 µM): 86%
- residual activity (CAMKK2 (human); compound 1.0 µM): 89%
- residual activity (CAMKK2 (human); compound 10.0 µM): 53%
- residual activity (MELK (human); compound 1.0 µM): 88%
- residual activity (MELK (human); compound 10.0 µM): 92%
- residual activity (FLT1 (human); compound 1.0 µM): 64%
- residual activity (FLT1 (human); compound 10.0 µM): 61%
- residual activity ([2]; compound 1.0 µM): 75%
- residual activity ([2]; compound 10.0 µM): 89%
- residual activity (NTRK1 (human); compound 1.0 µM): 79%
- residual activity (NTRK1 (human); compound 10.0 µM): 32%
- residual activity (PRKAA1 or PRKAA2 (rat); compound 1.0 µM): 70%
- residual activity (PRKAA1 or PRKAA2 (rat); compound 10.0 µM): 46%
- residual activity (MAPK3 (human); compound 1.0 µM): 105%
- residual activity (MAPK3 (human); compound 10.0 µM): 104%
- residual activity (PRKACA (human); compound 1.0 µM): 79%
- residual activity (PRKACA (human); compound 10.0 µM): 93%
- residual activity (DYRK1A (human); compound 1.0 µM): 87%
- residual activity (DYRK1A (human); compound 10.0 µM): 95%
- kinase still bound, per cent of control (ULK3 (human)): 100%
- kinase still bound, per cent of control (PRKCH (human)): 100%
- kinase still bound, per cent of control (PAK3 (human)): 83%
- kinase still bound, per cent of control (MAP4K4 (human)): 85%
- kinase still bound, per cent of control (NUAK1 (human)): 47%
- kinase still bound, per cent of control (PRPF4B (human)): 93%
- kinase still bound, per cent of control (OXSR1 (human)): 88%
- kinase still bound, per cent of control (HIPK3 (human)): 89%
- kinase still bound, per cent of control (STK32A (human)): 100%
- kinase still bound, per cent of control (PIM3 (human)): 88%
- kinase still bound, per cent of control (MAP3K3 (human)): 97%
- kinase still bound, per cent of control (CHUK (human)): 100%
- residual activity (CDC2L2 (human)): 82%
- residual activity (CDKL5 (human)): 100%
- kinase still bound, per cent of control [3]: 100%
- residual activity (CDKL1 (human)): 78%
- kinase still bound, per cent of control (PRKD3 (human)): 42%
- kinase still bound, per cent of control (MAPK4 (human)): 100%
- kinase still bound, per cent of control (PRKAA2 (human)): 66%
- kinase still bound, per cent of control (GAK (human)): 16%
- kinase still bound, per cent of control [4]: 72%
- residual activity (CDK18 (human)): 100%
- kinase still bound, per cent of control [5]: 72%
- kinase still bound, per cent of control (IRAK3 (human)): 100%
- kinase still bound, per cent of control (ABL2 (human)): 97%
